From ChEMBL document CHEMBL3301546, “MMV Malaria Box yeast growth screening”

Tests used:
Assay type in all cases: functional
Saccharomyces cerevisiae [1] = test: MMV: Growth assays were conducted using the prototrophic S. cerevisiae strain JHY222. Each MMV compound (0.1 mM) was tested in minimal media containing ethanol and glycerol as carbon sources (Yeast Nitrogen Base, Ethanol, Glycerol; YNBEG). The growth rate in the presence of each MMV compound was calculated as follows: (i) the first 10 OD readings were averaged and subtracted from all OD readings of the corresponding curve to set the baseline of the growth curve to zero, and (ii) the area under the curve (AUC) was then calculated as the sum of all OD readings. […] A relative growth value was calculated as follows: AUC(DRUG) - AUC(DMSO)/AUC(DMSO); where AUC(DMSO) represents growth measured in a DMSO control well that was on the same microtiter plate of the drug-treated culture.
Saccharomyces cerevisiae [2] = test: (§1) MMV: Growth assays were conducted using the prototrophic S. cerevisiae strain JHY222. Each MMV compound (0.1 mM) was tested in minimal media containing dextrose as a carbon source (Yeast Nitrogen Base, Dextrose; YNBD). The growth rate in the presence of each MMV compound was calculated as follows: (i) the first 10 OD readings were averaged and subtracted from all OD readings of the corresponding curve to set the baseline of the growth curve to zero, and (ii) the area under the curve (AUC) was then calculated as the sum of all OD readings. […] A relative growth value was calculated as follows: AUC(DRUG) - AUC(DMSO)/AUC(DMSO); where AUC(DMSO) represents growth measured in a DMSO control well that was on the same microtiter plate of the drug-treated culture.
Saccharomyces cerevisiae [3] = test: as §1, with “rich” for “minimal”, “Extract, Peptone,” for “Nitrogen Base,”, “YPD).” for “YNBD).”

Structure (SMILES)	Relative Growth (Saccharomyces cerevisiae [1])	Relative Growth (Saccharomyces cerevisiae [2])	Relative Growth (Saccharomyces cerevisiae [3])
CN(C)CCCNc1c2ccccc2nc2ccccc12	0.0887	-0.0065	0.0036
CCN1CCCC1CNc1[nH]cnc2c3cc(Cl)ccc3nc1-2 (stereo unspecified)	-0.3246	-0.0942	-0.0942
CSC1=NC(=Nc2c(C)cccc2C)C2(CCC(C(C)(C)C)CC2)N1c1ccc(Cl)cc1 (stereo unspecified)	0.0048	0.0233	-0.0962
Cc1cc(C)cc(Nc2cc(C)nc3nc(C(F)(F)F)nn23)c1	-0.0322	0.0866	-0.0343
O=C(NCC(c1ccsc1)N1CCCCCC1)c1ccc(C(F)(F)F)cc1 (stereo unspecified)	0.0335	0.0719	-0.0232
COc1ccc(-c2cc3c(SCC(=O)Nc4cc(C(F)(F)F)ccc4Cl)nccn3n2)cc1	-0.1809	0.0829	-0.0822
Cc1ccc(-c2cc3c(SCC(=O)Nc4cc(C(F)(F)F)ccc4Cl)nccn3n2)cc1	-0.0739	0.117	0.0079
CCN(CC)CCNc1ncnc2c1[nH]c1ccc(Cl)cc12	0.0317	0.0885	-0.0494
CCOC(=O)c1cnc2ccc(CC)cc2c1O	-0.0424	0.0544	-0.243
Cc1ccc(-c2cc3c(nn2)-c2ccccc2C3=O)cc1	-0.6667	-0.1641	-0.0004
Cc1ccc(Nc2nc(-c3ccccn3)cs2)cc1	0.1504	0.0898	0.0194
CCCCCC(=O)N1c2ccccc2N=C2CC(c3ccc(OC)c(OC)c3)CC(O)=C2C1c1ccc(C(F)(F)F)cc1 (stereo unspecified)	0.0121	0.1507	-0.0291
CCN1CCN(Cc2ccc(NC(=O)c3cc4ccc5cccnc5c4[nH]3)cc2)CC1	-0.0693	0.0158	0.0075
COc1ccc(-c2nc(NC(=O)CS(=O)(=O)c3ccc(F)cc3)sc2C)cc1	0.1484	0.0372	0.0127
CCc1c(C)c(=N)c2ccccc2n1C.I	0.0462	0.0986	-0.0391
COc1cccc(NC(=O)[C@H](C(C)C)n2c(=O)[nH]c3ccccc3c2=O)c1	0.0015	-0.0427	0.0157
CCC(c1ccccc1)c1nn2c(-c3cccs3)nnc2s1 (stereo unspecified)	0.1287	0.0181	-0.0182
CC(C)(C)c1ccc(O)c(CNC2CCCCC2)c1	-0.0737	0.1031	-0.013
CCOc1cc2c(cc1OCC)C(c1cc(OC)c(O)cc1Cl)NCC2 (stereo unspecified)	0.0748	0.0876	-0.0054

Structure (SMILES)	Relative Growth (Saccharomyces cerevisiae [1])	Relative Growth (Saccharomyces cerevisiae [2])	Relative Growth (Saccharomyces cerevisiae [3])
CC1CN(C(=O)c2sc3ccccc3c2Cl)CC(C)O1 (stereo unspecified)	-0.1107	0.0985	-0.0005
CN(C)c1ccc(C=Cc2nc(=O)c3ccccc3o2)cc1	0.0299	-0.0045	-0.0054
COc1ccc(C2=C(c3ccc(OC)cc3)C3(c4ccccc4)C(=O)C2(c2ccccc2)C2C(=O)N(c4ccc(C)cc4)C(=O)C23)cc1 (stereo unspecified)	-0.0687	-0.018	0.0057
CCOC(=O)C1=C(c2ccccc2)N=c2sc(=Cc3cc(C)n(-c4ccc(F)cc4)c3C)c(=O)n2C1c1cccc(OC)c1OC (stereo unspecified)	0.1067	0.0967	-0.0436
CCC1(C)CC(CCNCc2ccccc2O)(c2ccc(C)cc2)CCO1 (stereo unspecified)	0.156	0.0584	0.0044
OC(CNC1CCCCC1)Cn1c2ccccc2c2ccccc21 (stereo unspecified)	0.1093	0.0533	-0.0297
Cc1cc(Nc2ccc(C)c(Cl)c2)n2nc(C(F)(F)F)nc2n1	-0.6431	0.1169	-0.0311
COc1cccc(C=Cc2nc(=O)c3ccccc3o2)c1OC	-0.4404	0.0576	-0.0201
CCCN(CCC)CC(O)COc1ccccc1C(=O)Nc1ccccc1 (stereo unspecified)	0.0655	0.0118	-0.0395
Fc1ccc2[nH]c3c(NCCCN4CCOCC4)ncnc3c2c1	0.0735	0.0125	-0.0189
COc1ccc(C(=O)Nc2nonc2-c2ccc(OC)c(OC)c2)cc1Cl	0.0586	0.1144	-0.0037
COc1ccc(C=C2SC(=N)N(c3ccccc3OC)C2=O)cc1	-0.0639	-0.0085	-0.083
CC(NCc1ccccc1)c1cc(Cl)ccc1O (stereo unspecified)		0.042	-0.0386
COc1ccc(NC(=O)C2c3ccccc3C(=O)N(CC(C)C)C2c2cccs2)cc1Cl (stereo unspecified)	-0.0036	0.0154	-0.1808
CCOC(=O)c1c(C)n(-c2ccc(Cl)cc2)c2ccc(OC(=O)C=Cc3ccccc3)cc12	0.0277	0.0402	-0.0067
COc1ccc2c(c1)OC(O)(C(F)(F)C(F)(F)F)CC2=O (stereo unspecified)	-0.103	0.1423	0.0151
C=CC12CCN(CC1)C(C(O)c1ccnc3ccc(OC)cc13)C2.Cl (stereo unspecified)	0.1178	0.1593	-0.0044
Cc1ccc(-c2cc3nc4c(c(O)n3n2)CCCC4)cc1	-1.0646	-1.0172	-0.3245
COc1ccccc1CNC(=O)CCn1c(=O)[nH]c2ccccc2c1=O	0.058	0.0763	-0.0038

Structure (SMILES)	Relative Growth (Saccharomyces cerevisiae [1])	Relative Growth (Saccharomyces cerevisiae [2])	Relative Growth (Saccharomyces cerevisiae [3])
Cc1cc(C)c2c(c1)OCN(Cc1ccccc1Cl)C2	-0.3214	-0.0636	-0.0627
COc1ccccc1NC1=C(N2CCCCC2)C(=O)c2ccccc2C1=O	0.1747	0.0574	-0.0045
CCCc1cc(O)c2c3c(c(=O)oc2c1)CN(C)CC3	-0.0215	-0.0292	-0.0062
Cc1cc(NC(=O)C2c3ccccc3C(=O)N(CC(C)C)C2c2cccs2)no1 (stereo unspecified)	-0.0882	-0.0434	-0.03
Cl.Oc1ccccc1CNCC12CC3CC(CC(C3)C1)C2	0.0858	0.0701	-0.0154
COc1ccccc1CNC(=O)CCn1c(=O)[nH]c2ccsc2c1=O	-0.0445	0.2472	-0.0638
COc1ccc(Br)cc1C1Nc2ccc3ccccc3c2C2=C1C(=O)CC(c1ccccc1)C2 (stereo unspecified)	-0.105	0.0368	-0.0736
CC1CCN(Cc2ccc(NC(=O)c3cc4ccc5cccnc5c4[nH]3)cc2)CC1	-0.318	0.121	-0.0895
O=C(Nc1ccsc1C(=O)NC1CCCCC1)c1ccc(F)cc1		0.1187	-0.9286
CCOc1ccc(-c2nonc2NC(=O)c2cccc(C)c2)cc1OCC	-0.1269	0.0895	0.0084
COc1ccc2c(=O)cc(C(Cl)(Cl)Cl)oc2c1	-0.0182	0.0555	0.0032
COc1ccc(-c2nc3cc(Cc4ccc5[nH]c(-c6ccc(OC)cc6)nc5c4)ccc3[nH]2)cc1	0.0241	0.0862	-0.0264
CCOC(=O)c1ccc2nc(-c3ccccc3)cc(O)c2c1	0.0616	0.1214	-0.0952
Cc1cc(Nc2ccc(Cl)cc2)n2nc(C(F)(F)F)nc2n1	-0.0099	0.0221	0.0103
COc1ccc(C(C)=O)cc1N1C(=O)C2C(C1=O)C1(c3ccccc3)C(=O)C2(c2ccccc2)C(c2ccc(C)cc2)=C1c1ccc(C)cc1 (stereo unspecified)	0.0688	-0.0144	-0.992
CCCCCCOC(=O)C1=C(C)NC(=O)NC1c1ccccc1F (stereo unspecified)	-0.2346	0.2134	-0.0098
Cc1ccc(Nc2nc(NCCO)c3ccccc3n2)cc1C	0.0228	0.0139	-0.1142
COc1ccc(NC(=O)C2c3ccccc3C(=O)N(CC(C)C)C2c2cccs2)cc1 (stereo unspecified)	-0.1656	0.0442	-0.1052
